# Values quoted from earlier work in paper PMC7395068, “The evolution of strategies to minimise the risk of human drug-induced liver injury (DILI) in drug discovery and development” (Archives of Toxicology, 2020).
# Read-outs that look alike come from different tables or passages of the source.
# Details: cited from earlier work
# [1] = LTKB DILIrank category, ref Chen 2016
# [2] = binary human DILI assignment, ref Chen 2016
# [3] = binary in vivo human DILI call, ref Chen 2016
# [4] = human DILI, LTKB DILIrank category, ref Chen 2016
# [5] = binary in vivo DILI call given beside the severity category, ref Chen 2016
# [6] = human DILI concern category (LTKB DILIrank), ref Chen 2016
# [7] = binary DILI call, ref Chen 2016
molecule,measurement,setting,value
O=C(O[C@H]1C[C@H]2CC[C@@H](C1)[N+]21CCCC1)C(O)(c1ccccc1)c1ccccc1 [trospium],DILI severity category,[1],vNo-DILI-Concern
same,"DILI +VE (5-8), DILI -VE (-4)",[2],-VE
ferumoxides,"DILI +VE (5-8), DILI -VE (-4)",in vivo,-VE
same,DILI severity category,in vivo,vNo-DILI-Concern
CC(C)[C@@H]1NC(=O)[C@H](CCCCN)NC(=O)[C@@H](Cc2c[nH]c3ccccc23)NC(=O)[C@H](Cc2ccc(O)cc2)NC(=O)[C@@H](NC(=O)[C@H](N)Cc2ccc3ccccc3c2)CSSC[C@@H](C(=O)N[C@H](C(N)=O)[C@@H](C)O)NC1=O [lanreotide acetate],"DILI +VE (5-8), DILI -VE (-4)",[3],-VE
same,DILI severity category,[4],Ambiguous DILI-concern
Cc1nccn1CC1CCc2c(c3ccccc3n2C)C1=O (stereo not shown) [ondansetron],"DILI +VE (5-8), DILI -VE (-4)",[5],+VE
same,DILI severity category,[6],vLess-DILI-Concern
C/C(=C\c1csc(C)n1)[C@@H]1C[C@@H]2O[C@]2(C)CCC[C@H](C)[C@H](O)[C@@H](C)C(=O)C(C)(C)[C@@H](O)CC(=O)N1 [ixabepilone],"DILI +VE (5-8), DILI -VE (-4)",[3],-VE
same,DILI severity category,[4],Ambiguous DILI-concern
somatropin recombinant,"DILI +VE (5-8), DILI -VE (-4)",in vivo,-VE
same,DILI severity category,in vivo,vNo-DILI-Concern
canakinumab,"DILI +VE (5-8), DILI -VE (-4)",in vivo,+VE
same,DILI severity category,in vivo,vLess-DILI-Concern
polymyxin b sulfate,"DILI +VE (5-8), DILI -VE (-4)",[5],-VE
same,DILI severity category,[6],vNo-DILI-Concern
CC(C)N(CCC(C(N)=O)(c1ccccc1)c1ccccn1)C(C)C (stereo not shown) [disopyramide],"DILI +VE (5-8), DILI -VE (-4)",[3],+VE
same,DILI severity category,[4],vLess-DILI-Concern
COc1ccc2c3c1O[C@H]1C(=O)CC[C@@]4(O)[C@@H](C2)N(C)CC[C@]314 [oxycodone],"DILI +VE (5-8), DILI -VE (-4)",in vivo,-VE
same,DILI severity category,in vivo,vNo-DILI-Concern
CN1CCC[C@@H]1Cc1c[nH]c2ccc(CCS(=O)(=O)c3ccccc3)cc12 [eletriptan],"DILI +VE (5-8), DILI -VE (-4)",[3],-VE
same,DILI severity category,[4],Ambiguous DILI-concern
etanercept,"DILI +VE (5-8), DILI -VE (-4)",in vivo,+VE
same,DILI severity category,in vivo,vLess-DILI-Concern
COc1nc(N)nc2c1ncn2[C@@H]1O[C@H](CO)[C@@H](O)[C@@H]1O [nelarabine],"DILI +VE (5-8), DILI -VE (-4)",[5],+VE
same,DILI severity category,[6],vLess-DILI-Concern
Cc1c(OCC(F)(F)F)ccnc1C[S+]([O-])c1nc2ccccc2[nH]1 (stereo not shown) [lansoprazole],"DILI +VE (5-8), DILI -VE (-4)",[3],+VE
same,DILI severity category,[4],vLess-DILI-Concern
erythropoietin,"DILI +VE (5-8), DILI -VE (-4)",in vivo,-VE
same,DILI severity category,in vivo,vNo-DILI-Concern
COCCNC(=O)CN(CCN(CCN(CC(=O)[O-])CC(=O)NCCOC)CC(=O)[O-])CC(=O)[O-].[Gd+3] [gadoversetamide],"DILI +VE (5-8), DILI -VE (-4)",in vivo,-VE
same,DILI severity category,in vivo,vNo-DILI-Concern
colestipol,"DILI +VE (5-8), DILI -VE (-4)",in vivo,-VE
same,DILI severity category,in vivo,Ambiguous DILI-concern
CCC(C)C1(CC)C(=O)NC(=O)NC1=O (stereo not shown) [butabarbital],DILI severity category,[1],Ambiguous DILI-concern
same,"DILI +VE (5-8), DILI -VE (-4)",[7],-VE
CC(S)C(=O)NCC(=O)O (stereo not shown) [tiopronin],"DILI +VE (5-8), DILI -VE (-4)",[5],-VE
same,DILI severity category,[6],Ambiguous DILI-concern
panitumumab,"DILI +VE (5-8), DILI -VE (-4)",in vivo,-VE
same,DILI severity category,in vivo,vNo-DILI-Concern
CCc1c2c(nc3ccc(OC(=O)N4CCC(N5CCCCC5)CC4)cc13)-c1cc3c(c(=O)n1C2)COC(=O)[C@]3(O)CC [irinotecan],"DILI +VE (5-8), DILI -VE (-4)",in vivo,+VE
same,DILI severity category,in vivo,vLess-DILI-Concern
C[C@H](/C=C/[C@H](C)C(C)(C)O)[C@H]1CC[C@H]2/C(=C/C=C3C[C@@H](O)C[C@H](O)C3)CCC[C@]12C [paricalcitol],"DILI +VE (5-8), DILI -VE (-4)",[5],-VE
same,DILI severity category,[6],Ambiguous DILI-concern
CC[C@]1(O)C[C@H]2CN(CCc3c([nH]c4ccccc34)[C@@](C(=O)OC)(c3cc4c(cc3OC)N(C=O)[C@H]3[C@@](O)(C(=O)OC)[C@H](OC(C)=O)[C@]5(CC)C=CCN6CC[C@]43[C@@H]65)C2)C1 [vincristine],DILI severity category,[1],vLess-DILI-Concern
same,"DILI +VE (5-8), DILI -VE (-4)",[2],+VE
Cc1ccccc1C(=O)Nc1ccc(C(=O)N2CCCC(O)c3cc(Cl)ccc32)c(C)c1 (stereo not shown) [tolvaptan],"DILI +VE (5-8), DILI -VE (-4)",[5],+VE
same,DILI severity category,[6],vMost-DILI-Concern
CCN(CC)CCOC(=O)C1(C2CCCCC2)CCCCC1 [dicyclomine],"DILI +VE (5-8), DILI -VE (-4)",[3],-VE
same,DILI severity category,[4],vNo-DILI-Concern
CC(=O)OCC(=O)[C@@]1(O)CC[C@H]2[C@@H]3CCC4=CC(=O)CC[C@]4(C)[C@H]3C(=O)C[C@@]21C [cortisone acetate],"DILI +VE (5-8), DILI -VE (-4)",[3],-VE
same,DILI severity category,[4],vNo-DILI-Concern
CC(C)(C)NC[C@H](O)COc1nsnc1N1CCOCC1 [timolol],"DILI +VE (5-8), DILI -VE (-4)",[5],-VE
same,DILI severity category,[6],Ambiguous DILI-concern
N[C@@H](CS)C(=O)O [l-cysteine],"DILI +VE (5-8), DILI -VE (-4)",in vivo,-VE
same,DILI severity category,in vivo,Ambiguous DILI-concern
O=C(O)C1N=C(c2ccccc2)c2cc(Cl)ccc2NC1=O (stereo not shown) [clorazepate],DILI severity category,[1],Ambiguous DILI-concern
same,"DILI +VE (5-8), DILI -VE (-4)",[7],-VE
CC(C)c1cccc(C(C)C)c1OCOP(=O)(O)O [fospropofol],"DILI +VE (5-8), DILI -VE (-4)",[3],+VE
same,DILI severity category,[4],vLess-DILI-Concern
Cc1onc(-c2ccccc2)c1C(=O)N[C@@H]1C(=O)N2[C@@H]1SC(C)(C)[C@@H]2C(=O)O [oxacillin],"DILI +VE (5-8), DILI -VE (-4)",[5],+VE
same,DILI severity category,[6],vLess-DILI-Concern
CCCCc1oc2ccc(NS(C)(=O)=O)cc2c1C(=O)c1ccc(OCCCN(CCCC)CCCC)cc1 [dronedarone],"DILI +VE (5-8), DILI -VE (-4)",[3],+VE
same,DILI severity category,[4],vMost-DILI-Concern
anakinra,"DILI +VE (5-8), DILI -VE (-4)",in vivo,+VE
same,DILI severity category,in vivo,vLess-DILI-Concern
O=P(O)(O)C(O)(Cn1ccnc1)P(=O)(O)O [zoledronate],DILI severity category,[1],vLess-DILI-Concern
same,"DILI +VE (5-8), DILI -VE (-4)",[2],+VE
O=C1CN2Cc3c(ccc(Cl)c3Cl)N=C2N1 [anagrelide],DILI severity category,[1],Ambiguous DILI-concern
same,"DILI +VE (5-8), DILI -VE (-4)",[7],-VE
triptorelin pamoate,"DILI +VE (5-8), DILI -VE (-4)",in vivo,+VE
same,DILI severity category,in vivo,vLess-DILI-Concern
CN(C)CCc1c[nH]c2ccc(C[C@H]3COC(=O)N3)cc12 [zolmitriptan],DILI severity category,[1],Ambiguous DILI-concern
same,"DILI +VE (5-8), DILI -VE (-4)",[2],-VE
Cc1ccc(Cl)c(Nc2ccccc2C(=O)O)c1Cl [meclofenamic acid],"DILI +VE (5-8), DILI -VE (-4)",[3],-VE
same,DILI severity category,[4],Ambiguous DILI-concern
OC[C@H]1O[C@@H](n2cnc3c2NC=NC[C@H]3O)C[C@@H]1O [pentostatin],"DILI +VE (5-8), DILI -VE (-4)",[5],+VE
same,DILI severity category,[6],vMost-DILI-Concern
certolizumab pegol,"DILI +VE (5-8), DILI -VE (-4)",in vivo,-VE
same,DILI severity category,in vivo,Ambiguous DILI-concern
Cc1cc(C)cc(OCC2CNC(=O)O2)c1 (stereo not shown) [metaxalone],"DILI +VE (5-8), DILI -VE (-4)",[5],+VE
same,DILI severity category,[6],vLess-DILI-Concern
verteporfin,"DILI +VE (5-8), DILI -VE (-4)",in vivo,-VE
same,DILI severity category,in vivo,Ambiguous DILI-concern
COC(=O)C(c1ccccc1)C1CCCCN1 (stereo not shown) [methylphenidate],"DILI +VE (5-8), DILI -VE (-4)",in vivo,+VE
same,DILI severity category,in vivo,vLess-DILI-Concern
Cc1ccsc1C(=CCCN1CCC[C@@H](C(=O)O)C1)c1sccc1C [tiagabine],"DILI +VE (5-8), DILI -VE (-4)",[5],-VE
same,DILI severity category,[6],Ambiguous DILI-concern
COc1cc(C(=O)NCc2ccc(OCCN(C)C)cc2)cc(OC)c1OC [trimethobenzamide],"DILI +VE (5-8), DILI -VE (-4)",[5],-VE
same,DILI severity category,[6],Ambiguous DILI-concern
CNC[C@H](O)[C@@H](O)[C@H](O)[C@H](O)CO.CNC[C@H](O)[C@@H](O)[C@H](O)[C@H](O)CO.O=C([O-])CN(CCN(CC(=O)[O-])CC(=O)O)CCN(CC(=O)[O-])CC(=O)O.[Gd+3] [gadopentetate dimeglumine],"DILI +VE (5-8), DILI -VE (-4)",in vivo,-VE
same,DILI severity category,in vivo,vNo-DILI-Concern
NC[C@@H]1O[C@H](O[C@H]2[C@@H](O)[C@H](O[C@@H]3[C@@H](O)[C@H](N)C[C@H](N)[C@H]3O[C@H]3O[C@H](CN)[C@@H](O)[C@H](O)[C@H]3N)O[C@@H]2CO)[C@H](N)[C@@H](O)[C@@H]1O [neomycin],"DILI +VE (5-8), DILI -VE (-4)",in vivo,-VE
same,DILI severity category,in vivo,vNo-DILI-Concern
Nc1ncnc2c1ncn2CCOCP(=O)(O)O [adefovir],DILI severity category,[1],vLess-DILI-Concern
CN1CC(=O)N2[C@H](c3ccc4c(c3)OCO4)c3[nH]c4ccccc4c3C[C@@H]2C1=O [tadalafil],"DILI +VE (5-8), DILI -VE (-4)",[5],-VE
same,DILI severity category,[6],Ambiguous DILI-concern
CN1CC[C@]23CCCC[C@H]2[C@H]1Cc1ccc(O)cc13 [levorphanol],"DILI +VE (5-8), DILI -VE (-4)",[3],-VE
same,DILI severity category,[4],vNo-DILI-Concern
C[C@H]1C[C@@H]2[C@H]([C@@H](O)C[C@@]3(C)[C@H]2CC[C@]3(O)C(=O)CO)[C@@]2(C)C=CC(=O)C=C12 [methylprednisolone],"DILI +VE (5-8), DILI -VE (-4)",[5],+VE
same,DILI severity category,[6],vLess-DILI-Concern
COc1cccc2c1[C@@H]1CN(CCCCn3c(=O)[nH]c4c(sc5ncc(-c6ccccc6)nc54)c3=O)C[C@@H]1CO2 [fiduxosin],"DILI +VE (5-8), DILI -VE (-4)",[3],+VE
same,DILI severity category,[4],vMost-DILI-Concern
CCOC(=O)C1=C(COCCN)NC(C)=C(C(=O)OC)C1c1ccccc1Cl (stereo not shown) [amlodipine],"DILI +VE (5-8), DILI -VE (-4)",in vivo,+VE
same,DILI severity category,in vivo,vLess-DILI-Concern
COC(=O)[C@H]1[C@H]2C[C@@H]3c4[nH]c5cc(OC)ccc5c4CCN3C[C@H]2C[C@@H](OC(=O)c2cc(OC)c(OC)c(OC)c2)[C@@H]1OC [reserpine],"DILI +VE (5-8), DILI -VE (-4)",[5],-VE
same,DILI severity category,[6],vNo-DILI-Concern
CO[C@H]1C[C@@H]2CC[C@@H](C)[C@@](O)(O2)C(=O)C(=O)N2CCCC[C@H]2C(=O)O[C@H]([C@H](C)C[C@@H]2CC[C@@H](OCCO)[C@H](OC)C2)CC(=O)[C@H](C)/C=C(\C)[C@@H](O)[C@@H](OC)C(=O)[C@H](C)C[C@H](C)/C=C/C=C/C=C/1C [everolimus],"DILI +VE (5-8), DILI -VE (-4)",[3],-VE
same,DILI severity category,[4],Ambiguous DILI-concern
